Measurements taken from PMC11565396 (Journal of Lipid Research, 2024).
Like-named read-outs stand apart in the source and are kept apart here.

Target: EBOV VP40 (6xHis-VP40) (Ebola virus - Mayinga, Zaire, 1976, UniProt Q05128)
Assay: biochemical
Format: binding

EBOV VP40 (6xHis-VP40), sequence (Q05128 whole entry, looked up): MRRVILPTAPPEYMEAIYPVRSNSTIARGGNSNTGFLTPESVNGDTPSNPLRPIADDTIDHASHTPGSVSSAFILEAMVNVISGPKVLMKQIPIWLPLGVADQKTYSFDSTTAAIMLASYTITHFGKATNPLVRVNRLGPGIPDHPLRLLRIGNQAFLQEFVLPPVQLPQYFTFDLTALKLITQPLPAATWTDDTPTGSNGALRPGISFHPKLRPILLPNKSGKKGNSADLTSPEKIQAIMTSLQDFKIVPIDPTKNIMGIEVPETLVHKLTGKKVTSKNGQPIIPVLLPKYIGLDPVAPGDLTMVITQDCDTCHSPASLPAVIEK

Row | SMILES | Kd (read-out: Kd (apparent)) [nM] | Kd [nM]
1 | CCCCCCCCCCCCCCCC(=O)OCC(COP(=O)(O)OC[C@H](N)C(=O)O)OC(=O)CCCCCCCCCCCCCCC (stereo partly drawn) [DPPS] | 10 | 
2 | CCCCCCCC/C=C\CCCCCCCC(=O)OC[C@H](COP(=O)(O)OC[C@H](N)C(=O)O)OC(=O)CCCCCCC/C=C\CCCCCCCC [DOPS] | 311 | 
3 | CCCCCCCC/C=C\CCCCCCCC(=O)O[C@H](COC(=O)CCCCCCCCCCCCCCC)COP(=O)(O)OC[C@H](N)C(=O)O [POPS] |  | 186
